EC50 data for 27 molecules are collected here from patent US9156796B2, “Benzoimidazole-carboxylic acid amide derivatives as APJ receptor modulators” (SANOFI, priority 2013, dated 2015).

This assay deals with T1, human apelin receptor (Homo sapiens, UniProt P35414).
T1 construct: expressed in transfected cells
T1 sequence (P35414 1-380): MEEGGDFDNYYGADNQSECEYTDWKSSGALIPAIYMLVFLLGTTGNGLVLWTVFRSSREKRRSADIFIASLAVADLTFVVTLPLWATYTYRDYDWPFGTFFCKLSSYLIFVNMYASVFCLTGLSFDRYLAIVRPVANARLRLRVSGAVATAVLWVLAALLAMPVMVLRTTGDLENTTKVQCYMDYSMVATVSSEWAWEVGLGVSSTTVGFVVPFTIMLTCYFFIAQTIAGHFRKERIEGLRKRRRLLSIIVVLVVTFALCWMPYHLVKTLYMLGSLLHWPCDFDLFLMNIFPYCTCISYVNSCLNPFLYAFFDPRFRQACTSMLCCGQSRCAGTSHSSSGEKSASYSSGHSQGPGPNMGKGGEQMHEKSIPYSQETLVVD
Kind of assay: Determination of agonism on the human apelin receptor by a calcium fluorescence assay (FLIPR). The assay is classed as cell-based. Conditions: HEK293 cells stably transfected with human apelin receptor and Giaq protein, Fluo-4 calcium fluorescence. The gist of the method: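 HEK293 cells stably co-expressing human apelin receptor and promiscuous Giaq, loaded 1 h at 37 °C with Fluo-4 (4 μM) in probenecid-containing Hepes buffer, pH 7.4. Compounds, at least 7 concentrations in triplicate, added in FLIPR Tetra; peak calcium fluorescence normalized to 1 μM apelin-13 as 100% to derive EC50.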

Where two headings read alike, the source gives them in different places.

The term EC50 denotes the midpoint of the concentration-response curve. Regarding `CCC(CC)n1c(Cc2cccs2)nc2cc(C(=O)N[C@@H](CC(C)C)C(=O)N3CCC[C@@H]3C(=O)O)ccc21` [Example 410, (R)-1-((S)-2-{[1-(1-Ethyl-propyl)-2-thiophen-2-ylmethyl-1H-benzoimidazole-5-carbonyl]-amino}-4-methyl-pentanoyl)-pyrrolidine-2-carboxylic acid], the EC50 (read-out: EC50 (APJ agonism)) came to 578 nM. Take `CCC(CC)n1c(Cc2cccs2)nc2cc(C(=O)N[C@@H](CC(C)C)C(=O)N[C@@H](C)c3ccc(OC)cc3)ccc21` [Example 247, 1-(1-Ethyl-propyl)-2-thiophen-2-ylmethyl-1H-benzoimidazole-5-carboxylic acid {(S)-1-[(S)-1-(4-methoxy-phenyl)-ethylcarbamoyl]-3-methyl-butyl}-amide]: the EC50 (read-out: EC50 (APJ agonism)) was 7220 nM. Same read-out and setting: the value for `CC(C)C[C@H](NC(=O)c1ccc2c(c1)nc(Cc1ccsc1)n2C1CCCCC1C)C(=O)O` (stereo partly drawn) [Example 139, (S)-4-Methyl-2-{[1-(2-methyl-cyclohexyl)-2-thiophen-3-ylmethyl-1H-benzoimidazole-5-carbonyl]-amino}-pentanoic acid] was 285 nM; that for `CC(C)C[C@@H](CC(=O)O)NC(=O)c1ccc2c(c1)nc(Cc1cccs1)n2CC1CCCCC1` [Example 97, (S)-3-[(1-Cyclohexylmethyl-2-thiophen-2-ylmethyl-1H-benzoimidazole-5-carbonyl)-amino]-5-methyl-hexanoic acid] was 39000 nM; that for `CCC(CC)n1c(Cc2cccs2)nc2cc(C(=O)NC3(CO)CCCC3)ccc21` [Example 193, 1-(1-Ethyl-propyl)-2-thiophen-2-ylmethyl-1H-benzoimidazole-5-carboxylic acid (1-hydroxymethyl-cyclopentyl)-amide] was 6220 nM. Still for that read-out and setting: the value for `CCC(CC)n1c(Cc2cccs2)nc2cc(C(=O)N[C@@H](CC(C)C)C(=O)N3CCN(CC(C)C)CC3)ccc21` [Example 272, 1-(1-Ethyl-propyl)-2-thiophen-2-ylmethyl-1H-benzoimidazole-5-carboxylic acid [(S)-1-(4-isobutyl-piperazine-1-carbonyl)-3-methyl-butyl]-amide] was 2770 nM; that for `CCC(CC)n1c(Cc2cccs2)nc2cc(C(=O)NC(CC(C)C)c3nc(C)c(C)s3)ccc21` (stereo not drawn) [Example 480, 1-(1-Ethyl-propyl)-2-thiophen-2-ylmethyl-1H-benzoimidazole-5-carboxylic acid [1-(4,5-dimethyl-thiazol-2-yl)-3-methyl-butyl]-amide] was 20000 nM; that for `CCC(C)Cn1c(Cc2ccsc2)nc2cc(C(=O)N[C@@H](CC(C)C)C(=O)O)ccc21` (stereo partly drawn) [Example 137, (S)-4-Methyl-2-{[1-(2-methyl-butyl)-2-thiophen-3-ylmethyl-1H-benzoimidazole-5-carbonyl]-amino}-pentanoic acid] was 9500 nM. Regarding `CCC(CC)n1c(Cc2cccs2)nc2cc(C(=O)N[C@@H](CC(C)C)CS(=O)(=O)NC)ccc21` [Example 485, 1-(1-Ethyl-propyl)-2-thiophen-2-ylmethyl-1H-benzoimidazole-5-carboxylic acid ((S)-3-methyl-1-methylsulfamoylmethyl-butyl)-amide], the EC50 (read-out: EC50 (APJ agonism)) was found to be 813 nM. As for `CCC(CC)n1c(CC2CCCO2)nc2cc(C(=O)N[C@@H](CC3CCCCC3)C(=O)O)ccc21` (stereo partly drawn) [Example 151, (S)-3-Cyclohexyl-2-{[1-(1-ethyl-propyl)-2-(tetrahydro-furan-2-ylmethyl)-1H-benzoimidazole-5-carbonyl]-amino}-propionic acid], the EC50 (read-out: EC50 (APJ agonism)) is 890 nM. As to `CCC(CC)n1c(Cc2cccs2)nc2cc(C(=O)N[C@H](CCC(=O)O)[C@@H](C)CC)ccc21` [Example 71, (4R,5S)-4-{[1-(1-Ethyl-propyl)-2-thiophen-2-ylmethyl-1H-benzoimidazole-5-carbonyl]-amino}-5-methyl-heptanoic acid], the concentration for a half-maximal effect (EC50) (read-out: EC50 (APJ agonism)) worked out at 73 nM. On to `O=C(O)C[C@H](Cc1ccccc1)NC(=O)c1ccc2c(c1)nc(Cc1cccs1)n2C1CCCCC1C(F)(F)F` (stereo partly drawn) [Example 103, (S)-4-Phenyl-3-{[2-thiophen-2-ylmethyl-1-(2-trifluoromethyl-cyclohexyl)-1H-benzoimidazole-5-carbonyl]-amino}-butyric acid], for which, where the note is “read-out: EC50 (APJ agonism)”, the EC50 turned out to be 11000 nM. On the same count and under the same terms, the value for `CCC[C@H](NC(=O)c1ccc2c(c1)nc(Cc1cccs1)n2C(CC)CC)C(=O)O` [Example 94, (S)-2-{[1-(1-Ethyl-propyl)-2-thiophen-2-ylmethyl-1H-benzoimidazole-5-carbonyl]-amino}-pentanoic acid] was 781 nM; that for `CCC(CC)n1c(Cc2cccs2)nc2cc(C(=O)NC(Cc3ccc(C(F)(F)F)cc3)C(=O)O)ccc21` (stereo not drawn) [Example 31, 2-{[1-(1-Ethyl-propyl)-2-thiophen-2-ylmethyl-1H-benzoimidazole-5-carbonyl]-amino}-3-(4-trifluoromethyl-phenyl)-propionic acid] was 4110 nM.

In the case of `CCC(CC)n1c(Cc2cccs2)nc2cc(C(=O)N[C@@H](CC(C)C)C(=O)NCCCN3CCN(C)CC3)ccc21` [Example 227, 1-(1-Ethyl-propyl)-2-thiophen-2-ylmethyl-1H-benzoimidazole-5-carboxylic acid {(S)-3-methyl-1-[3-(4-methyl-piperazin-1-yl)-propylcarbamoyl]-butyl}-amide], the EC50 (read-out: EC50 (APJ agonism)) worked out at 287 nM. Consider `CCC(CC)n1c(Cc2cccs2)nc2cc(C(=O)N[C@@H](CC(C)C)C(=O)NCCOC)ccc21` [Example 268, 1-(1-Ethyl-propyl)-2-thiophen-2-ylmethyl-1H-benzoimidazole-5-carboxylic acid [(S)-1-(2-methoxy-ethylcarbamoyl)-3-methyl-butyl]-amide], for which the EC50 (read-out: EC50 (APJ agonism)) came to 552 nM. The same measure, in the same setting: the value for `CCC(CC)n1c(Cc2cccs2)nc2cc(C(=O)NC(C)(CC(C)C)C(=O)O)ccc21` (single isomer, unassigned) [Example 440] was 6590 nM.

On to `CCOCCNC(=O)[C@H](CC(C)C)NC(=O)c1ccc2c(c1)nc(Cc1cccs1)n2C(CC)CC` [Example 383, 1-(1-Ethyl-propyl)-2-thiophen-2-ylmethyl-1H-benzoimidazole-5-carboxylic acid [(S)-1-(2-ethoxy-ethylcarbamoyl)-3-methyl-butyl]-amide], for which, under “read-out: EC50 (APJ agonism)”, the EC50 was 2120 nM. Turning to `CCCC[C@H](CO)NC(=O)c1ccc2c(c1)nc(CC1CCCC1)n2C(CC)CC` [Example 183, 2-Cyclopentylmethyl-1-(1-ethyl-propyl)-1H-benzoimidazole-5-carboxylic acid ((R)-1-hydroxymethyl-pentyl)-amide], the EC50 (EC50 (APJ agonism)) was 26300 nM. On to `CC(C)C[C@H](NC(=O)c1ccc2c(c1)nc(Cc1cccs1)n2[C@@H]1CCCC[C@H]1C)[C@@H](O)CC(=O)O` [Example 78, (3S,4S)-3-Hydroxy-6-methyl-4-{[1-((1R,2R)-2-methyl-cyclohexyl)-2-thiophen-2-ylmethyl-1H-benzoimidazole-5-carbonyl]-amino}-heptanoic acid], for which the EC50 (read-out: EC50 (APJ agonism)) was 101 nM.

Turning to `C[C@@H]1CCCC[C@H]1n1c(Cc2cccs2)nc2cc(C(=O)NC(CCC(F)(F)F)C(=O)O)ccc21` (stereo partly drawn) [Example 27, 5,5,5-Trifluoro-2-{[1-((1R,2R)-2-methyl-cyclohexyl)-2-thiophen-2-ylmethyl-1H-benzoimidazole-5-carbonyl]-amino}-pentanoic acid], the EC50 (read-out: EC50 (APJ agonism)) was 1860 nM.

As for `CCC(CC)n1c(Cc2cccs2)nc2cc(C(=O)N[C@@H](CC(C)C)C(=O)N3CCC(N4CCN(C)CC4)CC3)ccc21` [Example 280, 1-(1-Ethyl-propyl)-2-thiophen-2-ylmethyl-1H-benzoimidazole-5-carboxylic acid {(S)-3-methyl-1-[4-(4-methyl-piperazin-1-yl)-piperidine-1-carbonyl]-butyl}-amide], the concentration for a half-maximal effect (EC50) (read-out: EC50 (APJ agonism)) came out at 219 nM. Same read-out and setting: the value for `CCC(CC)n1c(Cc2cccs2)nc2cc(C(=O)N[C@@H](CC(C)C)C(=O)NCCCN3CC(C)CC(C)C3)ccc21` (stereo partly drawn) [Example 332, 1-(1-Ethyl-propyl)-2-thiophen-2-ylmethyl-1H-benzoimidazole-5-carboxylic acid {(S)-1-[3-(3,5-dimethyl-piperidin-1-yl)-propylcarbamoyl]-3-methyl-butyl}-amide] was 692 nM; that for `CCC(CC)n1c(Cc2cccs2)nc2cc(C(=O)N[C@@H](CC(C)C)C(=O)NCCc3ccc(OC)cc3)ccc21` [Example 361, 1-(1-Ethyl-propyl)-2-thiophen-2-ylmethyl-1H-benzoimidazole-5-carboxylic acid {(S)-1-[2-(4-methoxy-phenyl)-ethylcarbamoyl]-3-methyl-butyl}-amide] was 25000 nM. As for `CCC(CC)n1c(Cc2cccs2)nc2cc(C(=O)N[C@@H](CC(C)C)C(=O)N3CCN(c4ccc(F)cc4)CC3)ccc21` [Example 270, 1-(1-Ethyl-propyl)-2-thiophen-2-ylmethyl-1H-benzoimidazole-5-carboxylic acid {(S)-1-[4-(4-fluoro-phenyl)-piperazine-1-carbonyl]-3-methyl-butyl}-amide], for the setting “read-out: EC50 (APJ agonism)”, the EC50 is 10800 nM. Take `CCC(CC)n1c(Cc2cccs2)nc2cc(C(=O)N[C@H](CC(=O)O)[C@@H](C)CC)ccc21` [Example 54, (3R,4S)-3-{[1-(1-Ethyl-propyl)-2-thiophen-2-ylmethyl-1H-benzoimidazole-5-carbonyl]-amino}-4-methyl-hexanoic acid]: where the note is “read-out: EC50 (APJ agonism)”, the 50% effective concentration (EC50) worked out at 115 nM. `CC(C)Cn1c(CC2CCCCC2)nc2cc(C(=O)N[C@@H](CC3CCCCC3)C(=O)O)ccc21` [Example 134, (S)-3-Cyclohexyl-2-[(2-cyclohexylmethyl-1-isobutyl-1H-benzoimidazole-5-carbonyl)-amino]-propionic acid]: the EC50 (read-out: EC50 (APJ agonism)) stood at 7150 nM.
